# Biological target: T1, Human Recombinant Matriptase 2 (Homo sapiens, UniProt Q8IU80)
# T1 construct: made in house
# T1 sequence (Q8IU80 1-811): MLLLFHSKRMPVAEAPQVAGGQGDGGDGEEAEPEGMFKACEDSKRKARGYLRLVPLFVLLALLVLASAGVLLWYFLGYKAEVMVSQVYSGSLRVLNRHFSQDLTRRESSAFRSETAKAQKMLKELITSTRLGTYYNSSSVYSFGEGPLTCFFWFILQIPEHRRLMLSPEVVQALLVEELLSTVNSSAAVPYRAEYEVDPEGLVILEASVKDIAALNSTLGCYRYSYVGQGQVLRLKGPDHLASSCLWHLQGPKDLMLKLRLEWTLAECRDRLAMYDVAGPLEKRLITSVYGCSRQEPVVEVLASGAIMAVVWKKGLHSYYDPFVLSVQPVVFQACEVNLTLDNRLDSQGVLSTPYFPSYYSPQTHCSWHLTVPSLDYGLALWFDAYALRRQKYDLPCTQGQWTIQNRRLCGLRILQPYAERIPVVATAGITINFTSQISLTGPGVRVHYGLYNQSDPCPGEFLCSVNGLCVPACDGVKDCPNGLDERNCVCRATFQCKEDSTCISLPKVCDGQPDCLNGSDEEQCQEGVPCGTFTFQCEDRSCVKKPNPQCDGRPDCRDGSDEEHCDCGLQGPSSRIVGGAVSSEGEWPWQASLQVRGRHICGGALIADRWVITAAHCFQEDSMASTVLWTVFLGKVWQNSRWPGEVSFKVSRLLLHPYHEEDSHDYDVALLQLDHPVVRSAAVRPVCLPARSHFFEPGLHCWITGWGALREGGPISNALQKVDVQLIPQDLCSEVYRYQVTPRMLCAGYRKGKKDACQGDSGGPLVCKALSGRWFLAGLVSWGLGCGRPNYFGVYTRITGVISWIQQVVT
# Test: Matriptase 2 inhibition, fluorescence based assay (Method I)
# Format: biochemical
# Details: Table A; Ki of Matriptase-2 given as class symbols; read-out: Mat-2 Ki
# How it was run: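 Fluorogenic readout (Ex 360/Em 480 nm) taken 60 min after adding 62 μM Boc-Gln-Ala-Arg-AMC, following 30-min enzyme–compound preincubation at 25 °C. Conditions: 3.5 nM in-house enzyme, pH 7.5 Tris/NaCl/gelatin buffer, 1% DMSO; percent inhibition versus concentration fitted by variable-slope sigmoidal regression.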
row,Ki,Structure (SMILES)
1,500 to 3000 nM,"CC(=O)OC(C)OC(=O)c1cc2ccc(CN)nc2n1Cc1cc(NS(=O)(=O)CC[C@@H]2CCCN2)cc2ccccc12 (stereo partly drawn) [Compound 275, 1-[6-(aminomethyl)-1-[(3-{2-[(2S)-pyrrolidin-2-yl]ethanesulfonamido}naphthalen-1-yl)methyl]-1H-pyrrolo[2,3-b]pyr-idine-2-carbonyloxy]-ethyl acetate]"
2,500 to 3000 nM,NCc1ccc2cc(C(=O)O)n(Cc3cc(NS(=O)(=O)[C@@H]4CCOC4)cc4ccccc34)c2n1 [Compound 276]
3,500 to 3000 nM,"CNCCOC(=O)c1cc2ccc(CN)nc2n1Cc1cc(NS(=O)(=O)CC2CCNCC2)cc2ccccc12 [Compound 278, 2-(methylamino)ethyl 6-(aminomethyl)-1-({3-[(piperidin-4-yl)methane-sulfonamido]naphthalen-1-yl}methyl)-1H-pyr-rolo[2,3-b]pyridine-2-carboxylate]"
4,500 to 3000 nM,"NCc1ccc2cc(C(=O)O)n(Cc3cc(NS(=O)(=O)C4CCCCC4)cc4ccccc34)c2n1 [Compound 279, 6-(aminomethyl)-1-[(3-cyclohexanesulfon-amidonaphthalen-1-yl)-methyl]-1H-pyrrolo[2,3-b]pyridine-2-carboxylic acid]"
5,500 to 3000 nM,"NCc1ccc2cc(C(=O)O)n(Cc3cc(NS(=O)(=O)[C@H]4CCOC4)cc4ccccc34)c2n1 [Compound 280, 6-(aminomethyl)-1-({3-[(3S)-oxolane-3-sulfon-amido]naphthalen-1-yl}-methyl)-1H-pyrrolo[2,3-b]pyridine-2-carboxylic acid]"
6,500 to 3000 nM,"CN1CCC(COC(=O)c2cc3ccc(CN)nc3n2Cc2cc(NS(=O)(=O)CC[C@H]3CCCN3)cc3ccccc23)CC1 [Compound 281, (1-methylpiperidin-4-yl)methyl 6-(aminometh-yl)-1-[(3-{2-[(2R)-pyr-rolidin-2-yl]ethanesul-fonamido}naphthalen-1-yl)methyl]-1H-pyrrolo-[2,3-b]pyridine-2-car-boxylate]"
7,500 to 3000 nM,"CNCCOC(=O)c1cc2ccc(CN)nc2n1Cc1cc(NS(=O)(=O)CC[C@@H]2CCCN2)cc2ccccc12 [Compound 283, 2-(methylamino)ethyl 6-(aminomethyl)-1-[(3-{2-[(2S)-pyrrolidin-2-yl]-ethanesulfonamido}-naphthalen-1-yl)methyl]-1H-pyrrolo[2,3-b]pyr-idine-2-carboxylate]"
8,500 to 3000 nM,"CN(C)CCOC(=O)c1cc2ccc(CN)nc2n1Cc1cc(NS(=O)(=O)CC[C@@H]2CCCN2)cc2ccccc12 [Compound 284, 2-(dimethylamino)ethyl 6-(aminomethyl)-1-[(3-{2-[(2S)-pyrrolidin-2-yl]ethanesulfonamido}-naphthalen-1-yl)methyl]-1H-pyrrolo[2,3-b]pyr-idine-2-carboxylate]"
9,100 to 500 nM,"NCc1ccc2cc(C(=O)O)n(Cc3cc(NS(=O)(=O)Cc4ccccc4)cc4c3CCCC4)c2n1 [Compound 285, 6-(aminomethyl)-1-((3-((phenylmethyl)sulfonamido)-5,6,7,8-tetrahydronaphthalen-1-yl)methyl)-1H-pyrrolo[2,3-b]pyridine-2-carboxylic acid]"
10,≤ 100 nM,"CN1CCC(COC(=O)c2cc3ccc(CN)nc3n2Cc2cc(NS(=O)(=O)Cc3ccccc3)cc3c2CCCC3)CC1 [Compound 286, (1-methylpiperidin-4-yl)methyl 6-(aminomethyl)-1-((3-((phenylmethyl)sulfonamido)-5,6,7,8-tetrahydronaphthalen-1-yl)methyl)-1H-pyrrolo[2,3-b]pyridine-2-carboxylate]"
11,100 to 500 nM,"NCc1ccc2cc(C(=O)O)n(Cc3cc(NS(=O)(=O)Cc4ccsc4)cc4c3CCCC4)c2n1 [Compound 287, 6-(aminomethyl)-1-({3-[(thiophen-3-yl)methane-sulfonamido]-5,6,7,8-tetrahydronaphthalen-1-yl}methyl)-1H-pyrrolo-[2,3-b]pyridine-2-carbox-ylic acid]"
12,100 to 500 nM,"COCCN1CCN(C(=O)Nc2cc(Cn3c(C(=O)O)cc4ccc(CN)nc43)c3ccccc3c2)CC1 [Compound 288, 6-(aminomethyl)-1-((3-(4-(2-methoxyethyl)piperazine-1-carboxamido)naphthalen-1-yl)methyl)-1H-pyrrolo[2,3-b]pyridine-2-carboxylic acid]"
13,100 to 500 nM,"CN1CCC[C@H]1CCOC(=O)Nc1cc(Cn2c(C(=O)O)cc3ccc(CN)nc32)c2ccccc2c1 [Compound 289, (S)-6-(aminomethyl)-1-((3-(((2-(1-methylpyrrolidin-2-yl)ethoxy)carbonyl)amino)naphthalen-1-yl)methyl)-1H-pyrrolo[2,3-b]pyridine-2-carboxylic acid]"
14,100 to 500 nM,CCOC(=O)c1cc2ccc(CN)nc2n1Cc1cc(NS(=O)(=O)Cc2ccsc2)cc2ccccc12 [Compound 291]
15,100 to 500 nM,"NCc1ccc2cc(C(=O)O)n(Cc3cc(NC(=O)NCC4CCN(S(=O)(=O)C5CC5)CC4)cc4ccccc34)c2n1 [Compound 292, 6-(aminomethyl)-1-({3-[({[1-(cyclopropanesul-fonyl)piperidin-4-yl]-methyl}carbamoyl)-amino]naphthalen-1-yl}-methyl)-1H-pyrrolo[2,3-b]pyridine-2-carboxylic acid]"
16,100 to 500 nM,"CS(=O)(=O)N1CCC(CNC(=O)Nc2cc(Cn3c(C(=O)O)cc4ccc(CN)nc43)c3ccccc3c2)CC1 [Compound 293, 6-(aminomethyl)-1-{[3-({[(1-methanesulfonyl-piperidin-4-yl)methyl]-carbamoyl}amino)naph-thalen-1-yl]methyl}-1H-pyrrolo[2,3-b]pyridine-2-carboxylic acid]"
17,100 to 500 nM,"CC(C)(C)S(=O)(=O)N1CCC(CNC(=O)Nc2cc(Cn3c(C(=O)O)cc4ccc(CN)nc43)c3ccccc3c2)CC1 [Compound 294, 6-(aminomethyl)-1-({3-[({[1-(2-methylpropane-2-sulfonyl)piperidin-4-yl]methyl}carbamoyl)-amino]naphthalen-1-yl}-methyl)-1H-pyrrolo[2,3-b]pyridine-2-carboxylic acid]"
18,500 to 3000 nM,"C[C@@H]1CN(C(=O)Nc2cc(Cn3c(C(=O)O)cc4ccc(CN)nc43)c3ccccc3c2)CCN1 [Compound 295, 6-(aminomethyl)-1-[(3-{[(3R)-3-methylpipera-zine-1-carbonyl]amino}-naphthalen-1-yl)methyl]-1H-pyrrolo[2,3-b]pyr-idine-2-carboxylic acid]"
19,500 to 3000 nM,"CC1(C)CCN(C(=O)Nc2cc(Cn3c(C(=O)O)cc4ccc(CN)nc43)c3ccccc3c2)CC1 [Compound 296, 6-(aminomethyl)-1-({3-[(4,4-dimethylpiperidine-1-carbonyl)amino]naph-thalen-1-yl}methyl)-1H-pyrrolo[2,3-b]pyridine-2-carboxylic acid]"
20,500 to 3000 nM,"NCc1ccc2cc(C(=O)O)n(Cc3cc(NC(=O)N4CC5CCCC5C4)cc4ccccc34)c2n1 (stereo not drawn) [Compound 297, 6-(aminomethyl)-1-{[3-({octahydrocyclopenta-[c]pyrrole-2-carbonyl}-amino)naphthalen-1-yl]-methyl}-1H-pyrrolo[2,3-b]pyridine-2-carboxylic acid]"
21,500 to 3000 nM,"NCc1ccc2cc(C(=O)O)n(Cc3cc(NC(=O)N4CCC(C(F)(F)F)CC4)cc4ccccc34)c2n1 [Compound 298, 6-(aminomethyl)-1-[(3-{[4-(trifluoromethyl)-piperidine-1-carbonyl]-amino}naphthalen-1-yl)-methyl]-1H-pyrrolo[2,3-b]pyridine-2-carboxylic acid]"
22,500 to 3000 nM,"CC(C)[C@H]1CCCN1C(=O)Nc1cc(Cn2c(C(=O)O)cc3ccc(CN)nc32)c2ccccc2c1 [Compound 299, 6-(aminomethyl)-1-[(3-{[(2R)-2-(propan-2-yl)-pyrrolidine-1-carbonyl]-amino}naphthalen-1-yl)-methyl]-1H-pyrrolo[2,3-b]pyridine-2-carboxylic acid]"
23,500 to 3000 nM,CC1(O)CCN(C(=O)Nc2cc(Cn3c(C(=O)O)cc4ccc(CN)nc43)c3ccccc3c2)CC1 [Compound 300]
24,500 to 3000 nM,"C[C@@H]1C[C@H](C)CN(C(=O)Nc2cc(Cn3c(C(=O)O)cc4ccc(CN)nc43)c3ccccc3c2)C1 [Compound 301, 6-(aminomethyl)-1-[(3-{[(3R,5S)-3,5-dimeth-ylpiperidine-1-carbonyl]-amino}naphthalen-1-yl)-methyl]-1H-pyrrolo[2,3-b]pyridine-2-carboxylic acid]"
25,500 to 3000 nM,"C[C@@H]1CN(C(=O)Nc2cc(Cn3c(C(=O)O)cc4ccc(CN)nc43)c3ccccc3c2)C[C@H](C)N1 [Compound 304, 6-(aminomethyl)-1-[(3-{[(3R,5S)-3,5-dimeth-ylpiperazine-1-carbon-yl]amino}naphthalen-1-yl)methyl]-1H-pyrrolo-[2,3-b]pyridine-2-car-boxylic acid]"
26,500 to 3000 nM,C[C@H]1CN(C(=O)Nc2cc(Cn3c(C(=O)O)cc4ccc(CN)nc43)c3ccccc3c2)CCN1 [Compound 305]
27,500 to 3000 nM,COC[C@H]1CCCN1C(=O)Nc1cc(Cn2c(C(=O)O)cc3ccc(CN)nc32)c2ccccc2c1 [Compound 307]
